{"source": "ChEMBL document CHEMBL4602715", "about": "“Efficacy and Tolerability of Pyrazolo[1,5-a]pyrimidine RET Kinase Inhibitors for the Treatment of Lung Adenocarcinoma” (ACS Med Chem Lett, 2020)", "key": {"[1]": {"target": "Bcr/Abl fusion protein (Homo sapiens, UniProt P00519)", "sequence (P00519 whole entry, the tested form may be a part)": "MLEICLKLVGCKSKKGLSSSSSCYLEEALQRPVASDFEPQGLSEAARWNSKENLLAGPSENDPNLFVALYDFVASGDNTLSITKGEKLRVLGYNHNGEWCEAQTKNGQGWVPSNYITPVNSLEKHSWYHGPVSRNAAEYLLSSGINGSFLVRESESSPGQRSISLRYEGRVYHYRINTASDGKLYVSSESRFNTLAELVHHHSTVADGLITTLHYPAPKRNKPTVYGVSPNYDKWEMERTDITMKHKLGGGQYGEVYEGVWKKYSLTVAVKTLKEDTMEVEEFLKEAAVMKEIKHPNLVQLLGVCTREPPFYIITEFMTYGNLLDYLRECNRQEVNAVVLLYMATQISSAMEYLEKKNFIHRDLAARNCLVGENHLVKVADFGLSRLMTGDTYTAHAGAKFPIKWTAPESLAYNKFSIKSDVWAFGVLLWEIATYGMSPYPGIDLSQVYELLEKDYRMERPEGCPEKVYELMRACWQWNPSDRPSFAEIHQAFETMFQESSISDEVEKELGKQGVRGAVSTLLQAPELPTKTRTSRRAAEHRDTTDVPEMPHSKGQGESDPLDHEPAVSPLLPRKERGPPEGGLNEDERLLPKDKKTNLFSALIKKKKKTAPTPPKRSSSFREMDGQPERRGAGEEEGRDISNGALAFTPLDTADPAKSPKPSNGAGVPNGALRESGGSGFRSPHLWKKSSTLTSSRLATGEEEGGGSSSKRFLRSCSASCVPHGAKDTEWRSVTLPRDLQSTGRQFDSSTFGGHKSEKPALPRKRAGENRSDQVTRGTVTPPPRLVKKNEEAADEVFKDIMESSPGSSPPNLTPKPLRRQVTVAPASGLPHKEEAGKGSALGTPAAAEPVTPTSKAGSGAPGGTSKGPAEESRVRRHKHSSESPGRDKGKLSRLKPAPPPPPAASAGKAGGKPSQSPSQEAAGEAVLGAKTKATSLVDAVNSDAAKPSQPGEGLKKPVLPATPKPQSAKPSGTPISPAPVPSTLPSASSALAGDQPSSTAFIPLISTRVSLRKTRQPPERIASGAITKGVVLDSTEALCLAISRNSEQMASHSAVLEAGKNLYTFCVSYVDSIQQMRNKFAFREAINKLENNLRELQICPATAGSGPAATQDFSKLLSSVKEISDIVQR", "sequence (P11274 whole entry, further chain, the tested form may be a part)": "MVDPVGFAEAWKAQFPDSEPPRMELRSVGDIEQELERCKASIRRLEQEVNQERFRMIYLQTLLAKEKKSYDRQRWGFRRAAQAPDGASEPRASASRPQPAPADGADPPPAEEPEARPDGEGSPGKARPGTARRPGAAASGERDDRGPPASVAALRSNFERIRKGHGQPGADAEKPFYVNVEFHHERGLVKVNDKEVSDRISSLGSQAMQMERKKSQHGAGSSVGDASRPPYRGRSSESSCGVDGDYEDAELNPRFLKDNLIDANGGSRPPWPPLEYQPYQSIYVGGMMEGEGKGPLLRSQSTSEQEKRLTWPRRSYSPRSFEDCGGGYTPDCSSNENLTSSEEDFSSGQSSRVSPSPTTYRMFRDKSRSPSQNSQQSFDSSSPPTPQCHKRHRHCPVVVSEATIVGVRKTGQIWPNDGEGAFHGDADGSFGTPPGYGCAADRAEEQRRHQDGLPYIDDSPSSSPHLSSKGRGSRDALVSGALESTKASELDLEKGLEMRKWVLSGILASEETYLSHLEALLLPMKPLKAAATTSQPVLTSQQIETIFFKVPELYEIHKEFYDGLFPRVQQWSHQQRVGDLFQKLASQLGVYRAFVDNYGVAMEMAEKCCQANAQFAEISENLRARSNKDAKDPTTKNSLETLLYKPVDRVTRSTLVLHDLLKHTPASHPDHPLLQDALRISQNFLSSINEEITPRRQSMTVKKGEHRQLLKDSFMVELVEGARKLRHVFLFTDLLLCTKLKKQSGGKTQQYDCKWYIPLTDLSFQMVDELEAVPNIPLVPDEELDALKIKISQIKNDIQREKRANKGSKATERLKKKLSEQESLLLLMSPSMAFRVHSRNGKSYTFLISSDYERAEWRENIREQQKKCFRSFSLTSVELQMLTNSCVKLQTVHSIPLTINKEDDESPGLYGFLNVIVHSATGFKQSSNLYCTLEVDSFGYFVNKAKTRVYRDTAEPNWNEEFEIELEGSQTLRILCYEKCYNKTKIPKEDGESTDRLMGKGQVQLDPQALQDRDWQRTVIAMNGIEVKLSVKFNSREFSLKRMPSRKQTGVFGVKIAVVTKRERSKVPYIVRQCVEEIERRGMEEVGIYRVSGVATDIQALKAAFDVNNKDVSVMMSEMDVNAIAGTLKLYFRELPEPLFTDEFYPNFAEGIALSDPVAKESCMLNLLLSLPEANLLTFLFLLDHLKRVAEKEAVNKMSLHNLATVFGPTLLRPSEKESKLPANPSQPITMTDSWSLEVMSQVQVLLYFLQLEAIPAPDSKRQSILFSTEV", "experiment": "Inhibition of BCR/ABL (unknown origin) transfected in mouse Ba/F3 cells assessed as reduction in cell viability incubated for 48 hrs by brightglo-luciferase reporter gene assay", "format": "cell-based, BaF3"}, "[2]": {"test_system": "BaF3", "experiment": "Cytotoxicity against mouse BA/F3 cells assessed as reduction in cell viability incubated for 48 hrs by brightglo-luciferase reporter gene assay", "format": "cell-based", "settings": "BaF3, 48 h"}, "[3]": {"test_system": "LC-2-ad", "experiment": "Cytotoxicity against human LC2/ad cells assessed as reduction in cell viability incubated for 6 days by CellTiter Glo assay", "format": "cell-based", "settings": "144 h"}, "[4]": {"experiment": "Aqueous solubility of compound at pH 6.8 incubated for 24 hrs by HPLC/UV analysis", "format": "physicochemical"}, "[5]": {"test_system": "LC-2-ad", "experiment": "Antitumor activity against human LC2/ad cells xenografted in NSG mouse assessed as reduction in tumor volume at 10 mg/kg, po qd for 21 days measured following cessation of drug treatment", "format": "functional, organism-based"}, "[6]": {"test_system": "Mus musculus", "experiment": "In vivo inhibition of KIF5B/RET transfected in rat RIE cells xenografted in Harlan Foxn1 nude mouse assessed as reduction in intratumoral RET phosphorylation at 1 to 3 mg/kg, po qd for 10 days and measured after 5 hrs post-last dose by Western blot analysis", "format": "functional, organism-based"}, "[7]": {"test_system": "Rattus norvegicus", "experiment": "Antitumor activity against rat RIE cells transfected with KIF5B/RET xenografted in Harlan Foxn1 nude mouse assessed as tumor stasis at 3 mg/kg, po qd for 10 days", "format": "functional, organism-based"}, "[8]": {"test_system": "Rattus norvegicus", "experiment": "Antitumor activity against rat RIE cells transfected with KIF5B/RET xenografted in Harlan Foxn1 nude mouse assessed as tumor regression at 10 mg/kg, po qd for 10 days", "format": "functional, organism-based"}, "[9]": {"test_system": "Rattus norvegicus", "experiment": "Antitumor activity against rat RIE cells transfected with KIF5B/RET xenografted in Harlan Foxn1 nude mouse assessed as reduction in visible vasculature at 10 to 60 mg/kg, po qd for 14 days", "format": "functional, organism-based"}, "[10]": {"test_system": "Mus musculus", "experiment": "In vivo inhibition of KIF5B/RET transfected in rat RIE cells xenografted in Harlan Foxn1 nude mouse assessed as reduction in intratumoral RET phosphorylation at 1 to 3 mg/kg, po qd for 10 days and measured after 24 hrs post-last dose by Western blot analysis", "format": "functional, organism-based"}, "[11]": {"test_system": "Rattus norvegicus", "experiment": "Antitumor activity against rat RIE cells transfected with KIF5B/RET xenografted in Harlan Foxn1 nude mouse assessed as tumor growth inhibition at 1 mg/kg, po qd for 10 days", "format": "functional, organism-based"}, "[12]": {"test_system": "Rattus norvegicus", "experiment": "Antitumor activity against rat RIE cells transfected with KIF5B/RET xenografted in Harlan Foxn1 nude mouse assessed as tumor regression at 10 to 60 mg/kg, po qd for 14 days", "format": "functional, organism-based"}}, "note": "Active and inactive are the calls of the source. No cut-off for these calls is given here.", "data": [{"smiles": "COc1ccc(-c2cnn3c(N)c(-c4nccs4)c(OC4CCN(C)CC4)nc23)cc1OC", "values": [{"measurement": "IC50", "setting": "[1]", "value": "> 10", "unit": "µM"}, {"measurement": "IC50", "setting": "[2]", "value": "> 11", "unit": "µM"}]}, {"smiles": "COc1ccc(-c2cnn3c(N)c(-c4ccccc4)c(OCCCN(C)C)nc23)cc1OC", "values": [{"measurement": "IC50", "setting": "[3]", "value": 2.8, "unit": "µM"}, {"measurement": "solubility at 24 h", "setting": "[4]", "value": 88, "unit": "µM"}]}, {"smiles": "COc1ccc(-c2cnn3c(N)c(-c4ccccc4)c(NC4CC(C)(C)N(C)C(C)(C)C4)nc23)cc1OC", "values": [{"measurement": "Activity", "setting": "[5]", "value": "Active"}, {"measurement": "inhibition", "setting": "[6]", "value": "Active"}, {"measurement": "Activity", "setting": "[7]", "value": "Active"}, {"measurement": "Activity", "setting": "[8]", "value": "Active"}, {"measurement": "Activity", "setting": "[9]", "value": "Active"}, {"measurement": "inhibition", "setting": "[10]", "value": "inactive"}, {"measurement": "Activity", "setting": "[11]", "value": "Active"}, {"measurement": "Activity", "setting": "[12]", "value": "Active"}]}]}
